Assays:
[1] = test system: mouse experimental dry eye (EDE) model; assay: Tear volume, phenol red thread test, EDE mouse model; type: in vivo
Procedure: (§1) To confirm the pharmacological effect and appropriate dosage, a pilot study was first conducted with the mice. In addition, a rabbit DED (Dry Eye Disease) model with a large exposed facial area was evaluated in comparison with a mouse model. In the mouse experimental dry eye (EDE) model, scopolamine hydrobromide (Sigma-Aldrich. St. Louis, MO, USA) was subcutaneously injected three times a day (9 a.m., 1:30 p.m., 6 p.m.) in a room exposed to ventilation with an ambient humidity of less than 40% at 25±2° C. to induce DED.
(§2) The mice were randomly divided into five groups: (1) EDE (experimental dry eye) control mice without eye drops administration, (2) EDE mice treated with a vehicle (phosphate-buffered saline), (3) EDE mice treated with 0.001% (PEG)-BHD1028 (4) EDE mice treated with 0.01% (PEG)-BHD1028, and (5) EDE mice treated with 0.1% (PEG)-BHD1028. All the treatment groups received 2 μL of eye drops three times a day.
(§3) The tear secretion was measured for 20 seconds by contacting a cotton thread containing phenol red (Zone-Quick™; Oasis Medical, Inc., Glendora, CA, USA) to the conjunctival sac on the lateral canthus of the mouse eye. After measuring the length using a Nikon SMZ1500 microscope, the length substituted to the prescribed formula, and the value was converted to volume. The tear production of the rabbits was measured by a modified Schirmer tear test using Whatman 41 filter paper strips (Tianjin Jingming New Technology Development Co., Ltd., Tianjin, China) on Day 0, Day 5, and Day 10. Eye examination of the rabbits was performed under anesthesia. The anesthesia was performed under sedation by performing intramuscular injection of xylazine (3 mg/kg, Rompun®; Bayer Korea, Korea) and intramuscular injection of 10 mg/kgtiletamine/zolazepam (Zoletil®, Virbac Laboratories, Carros, France). After adding 1 drop of proparacaine HCl 0.5% (Alcaine®, Alcon Korea Ltd., Seoul, Korea), excess tears and eye drops were removed with Weck-cel® […]. The wet length (mm) of the paper strip was read after 5 minutes.
The tear volume of the mice was measured using the Phenol Red Thread (PRT) test on Day 5 and Day 10 after the treatment.

[2] = test system: mouse experimental dry eye (EDE) model; assay: Corneal fluorescein staining (CFS) score, EDE mouse model; type: in vivo
Procedure: as §1, §2
The subjects were evaluated by corneal staining, and the abnormal findings of the eyelids, cornea, and conjunctiva were recorded. After dropping 1 μL of the 1% fluorescent dye solution and washing with saline solution, and the cornea was observed under a slit-lamp microscope and scored to evaluate the degree of epithelial damage (degree of fluorescent staining).
The clinical severity of the cornea was evaluated using a corneal fluorescein staining (CFS) method, which is widely used to detect foreign substances and corneal surface damage. A higher CFS score indicates more severe corneal epitheliopathy.

[3] = test system: rabbit DED model; assay: Schirmer tear test (STT), rabbit DED model; type: in vivo
Procedure: The rabbit DED model was induced by locally administrating 0.1% benzalkoniumchloride (BAC) drops (Sigma, St. Louis, MO, USA) twice a day (8 a.m. and 4 p.m.). Before the BAC treatment, the control group (baseline, naive) underwent standard dry eye clinical tests such as the Schirmer tear test (STT), TBUT, and corneal staining score (CSS) test. After the BAC treatment, the induction of dry eye syndrome was confirmed, and the test substance was administered for 10 days while maintaining the induction of dry eye syndrome. […] The test substance was locally applied bis in die (BID) to both eyes.
as §3

[4] = test system: CD11b+ monocytes; assay: CD11b+ monocytes by flow cytometry, EDE mouse model; type: in vivo; conditions: for geometric mean number of CD11b+ monocytes: cornea
Procedure: The cornea, conjunctiva, and each tissue required for analysis were excised with scissors, incised, and shaken with 0.5 mg/mL collagenase type D at 37° C. for 1 hour. After pulverizing the tissue, the resulting mixture was passed through a cell strainer, centrifuged, and resuspended in phosphate-buffered saline containing 1% bovine serum albumin.
In DED, corneal barrier destruction and epithelial cell loss are accompanied by bone marrow and T cell infiltration. Activated T lymphocytes are the primary producers of Th-1 cytokines and interferon (IFN)-γ, which promote cell death at the ocular surface. To evaluate the anti-inflammatory effect of (PEG)-BHD1028 in the EDE mouse model, immune cells that play the role of inflammatory cell surface markers were quantified by flow cytometry with one animal per group.

[5] = test system: corneal epithelium; assay: Corneal epithelial thickness after H&E staining, EDE rabbit model; type: in vivo; conditions: all treatment groups (0.1%, 0.2%, 0.4%), vs vehicle, p<0.001
From the text: The extracted eyes were washed with phosphate-buffered saline (PBS), fixed in the modified Davidson's solution, and embedded in paraffin (Histocore Arcadia, Leica, Wetzlar, Germany). Afterwards, paraffin blocks were sliced into sections of a ˜6 μm thickness, mounted on microscope slides (HistoCore AUTOCUT, Leica, Germany), air dried, and stained with hematoxylin-eosin. The stained tissue slides were imaged, and data were obtained using an optical microscope/digital slide scanner (Axio Scan.Z1, Zeiss, Oberkochen, Germany). Image measurement was performed using ZEN (Zeiss, Germany) and ImageJ (NIH, Bethesda, […], USA) software programs.
The pathophysiology of dry eye syndrome includes pathological changes in the epithelium such as erosion, cicatrix, scar, corneal neovascularization and, in severe conditions, corneal perforation. The protective effect of (PEG)-BHD1028 on the epithelium was evaluated by measuring the corneal thickness using ZEN (Zeiss, Germany) microscopy software program after H&E tissue staining.

[6] = pI value of the API; type: physicochemical

Substance: NH2-Tyr-Tyr-Phe-Ala-Tyr-His-Pro-Asn-Ile-Pro-Gly-Leu-Tyr-Tyr-Phe-COOH (H-YYFAYHPNIPGLYYF-OH; also: PEGylated, site not given here (mPEG), acetate salt) [(PEG)-BHD1028]
- Tear volume ([1]; 0.001% eye drops three times a day, Day 5): 0.024 ± 0.003 µL
- Tear volume ([1]; 0.001% eye drops three times a day, Day 10): 0.021 ± 0.002 µL
- Tear volume ([1]; 0.01% eye drops three times a day, Day 5): 0.026 ± 0.003 µL
- Tear volume ([1]; 0.01% eye drops three times a day, Day 10): 0.027 ± 0.003 µL
- Tear volume ([1]; 0.1% eye drops three times a day, Day 5): 0.028 ± 0.002 µL
- Tear volume ([1]; 0.1% eye drops three times a day, Day 10): 0.032 ± 0.004 µL
- CFS ([2]; 0.001%, Day 5): 9.875 ± 1.808 score
- CFS ([2]; 0.001%, Day 10): 11.000 ± 1.927 score
- CFS ([2]; 0.01%, Day 5): 8.625 ± 1.598 score
- CFS ([2]; 0.01%, Day 10): 7.625 ± 1.598 score
- CFS ([2]; 0.1%, Day 5): 8.125 ± 1.553 score
- CFS ([2]; 0.1%, Day 10): 8.375 ± 1.302 score
- STT-2 ([3]; rabbit DED, 0.1% BID, Day 5): 4.67 ± 0.65 mm
- STT-2 ([3]; rabbit DED, 0.1% BID, Day 10): 6.50 ± 0.87 mm
- STT-2 ([3]; rabbit DED, 0.2% BID, Day 5): 3.33 ± 0.51 mm
- STT-2 ([3]; rabbit DED, 0.2% BID, Day 10): 7.50 ± 0.99 mm
- STT-2 ([3]; rabbit DED, 0.4% BID, Day 5): 4.33 ± 0.45 mm
- STT-2 ([3]; rabbit DED, 0.4% BID, Day 10): 6.67 ± 1.02 mm
- STT-2 ([3]; rabbit, 0.1% group, Baseline (before BAC treatment)): 6.67 ± 0.96 mm
- STT-2 ([3]; rabbit, 0.1% group, Day 0 (EDE), before treatment): 3.00 ± 1.22 mm
- STT-2 ([3]; rabbit, 0.2% group, Baseline (before BAC treatment)): 8.50 ± 1.39 mm
- STT-2 ([3]; rabbit, 0.2% group, Day 0 (EDE), before treatment): 3.33 ± 1.28 mm
- STT-2 ([3]; rabbit, 0.4% group, Baseline (before BAC treatment)): 9.17 ± 1.23 mm
- STT-2 ([3]; rabbit, 0.4% group, Day 0 (EDE), before treatment): 3.33 ± 1.22 mm
- number of CD11b+ monocytes ([4]; conjunctiva, 0.001%): 352.09
- number of CD11b+ monocytes ([4]; conjunctiva, 0.01%): 330.48
- number of CD11b+ monocytes ([4]; conjunctiva, 0.1%): 36.35
- geometric mean number of CD11b+ monocytes ([4]; 0.001%): 178.06
- geometric mean number of CD11b+ monocytes ([4]; 0.01%): 131.59
- geometric mean number of CD11b+ monocytes ([4]; 0.1%): 126.25
- number of CD11b+ monocytes ([4]; lacrimal gland, 0.001%): 84
- number of CD11b+ monocytes ([4]; lacrimal gland, 0.01%): 74.60
- number of CD11b+ monocytes ([4]; lacrimal gland, 0.1%): 60.48
- mean corneal epithelial thickness [5]: significantly greater than that of the vehicle treated animals
- pI value [6]: approximately 6.6

Reference: US20240408167A1, “COMPOSITION FOR TREATING OCULAR DISEASES CONTAINING PEPTIDE” (Encuragen Inc., priority 2023, published 2024)
